# Data reported in patent US8802597B2, “Herbicidal pyrimidines” (E I du Pont de Nemours and Company, priority 2003, dated 2014).
# How the values were obtained:
# Experiment in all cases: Test C pre/postemergence
# Assay type in all cases: in vivo
# [1] = system: yellow nutsedge (Cyperus esculentus); settings: for Plant response rating (scale of 0 to 100), Nutsedge, Yellow / Nutsedge, Yellow plant response rating: Postemergence; for Nutsedge, Yellow plant response rating: scale 0 to 100 (0 no effect, 100 complete control); for Plant response rating, Nutsedge, Yellow: Preemergence
# Method in brief: (§1)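 Injury scored visually 12–14 days after application on 0–100 scale (100 = complete control), relative to controls. Compounds, formulated with surfactant in non-phytotoxic solvent, applied to soil at planting (pre) or to 1- to 4-leaf plants 2–18 cm tall (post) in greenhouse.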
# [2] = system: kochia (Kochia scoparia); settings: for Plant response rating (scale of 0 to 100), Kochia / Kochia plant response rating: Postemergence; for Kochia plant response rating: scale 0 to 100 (0 no effect, 100 complete control); for Plant response rating, Kochia: Preemergence
# Method in brief: as §1
# [3] = system: velvetleaf (Abutilon theophrasti); settings: for Plant response rating (scale of 0 to 100), Velvetleaf / Velvetleaf plant response rating: Postemergence; for Velvetleaf plant response rating: scale 0 to 100 (0 no effect, 100 complete control); for Plant response rating, Velvetleaf: Preemergence
# Method in brief: as §1
# [4] = system: common (oilseed) sunflower (Helianthus annuus); settings: Preemergence
# Method in brief: as §1
# [5] = system: corn (Zea mays); settings: for Plant response rating (scale of 0 to 100), Corn / Corn plant response rating: Postemergence; for Corn plant response rating: scale 0 to 100 (0 no effect, 100 complete control); for Plant response rating, Corn: Preemergence
# Method in brief: as §1
# [6] = system: goosegrass (Eleusine indica); settings: for Plant response rating (scale of 0 to 100), Goosegrass / Goosegrass plant response rating: Postemergence; for Goosegrass plant response rating: scale 0 to 100 (0 no effect, 100 complete control); for Plant response rating, Goosegrass: Preemergence
# Method in brief: as §1
# [7] = system: common ragweed (Ambrosia elatior); settings: for Plant response rating (scale of 0 to 100), Ragweed / Ragweed plant response rating: Postemergence; for Ragweed plant response rating: scale 0 to 100 (0 no effect, 100 complete control); for Plant response rating, Ragweed: Preemergence
# Method in brief: as §1
# [8] = system: cocklebur (Xanthium strumarium); settings: for Plant response rating (scale of 0 to 100), Cocklebur / Cocklebur plant response rating: Postemergence; for Cocklebur plant response rating: scale 0 to 100 (0 no effect, 100 complete control); for Plant response rating, Cocklebur: Preemergence
# Method in brief: as §1
# [9] = system: lambsquarters (Chenopodium album); settings: for Plant response rating (scale of 0 to 100), Lambsquarters / Lambsquarters plant response rating: Postemergence; for Lambsquarters plant response rating: scale 0 to 100 (0 no effect, 100 complete control); for Plant response rating, Lambsquarters: Preemergence
# Method in brief: as §1
# [10] = system: pigweed (Amaranthus retroflexus); settings: for Plant response rating (scale of 0 to 100), Pigweed / Pigweed plant response rating: Postemergence; for Pigweed plant response rating: scale 0 to 100 (0 no effect, 100 complete control); for Plant response rating, Pigweed: Preemergence
# Method in brief: as §1
# [11] = system: Surinam grass (Brachiaria decumbens); settings: for Plant response rating, Surinam Grass: Preemergence
# Method in brief: as §1
# [12] = system: crabgrass (Digitaria sanguinalis); settings: for Plant response rating (scale of 0 to 100), Crabgrass / Crabgrass plant response rating: Postemergence; for Crabgrass plant response rating: scale 0 to 100 (0 no effect, 100 complete control); for Plant response rating, Crabgrass: Preemergence
# Method in brief: as §1
# [13] = 16 g ai/ha, scale 0 to 100, 0 no effect, 100 complete control
# [14] = 31 g ai/ha, scale 0 to 100, 0 no effect, 100 complete control
# [15] = 62 g ai/ha, scale 0 to 100, 0 no effect, 100 complete control
structure (smiles),measurement,setting,value
COC(=O)c1nc(C2CC2)nc(N=CN(C)C)c1Br [Compound 19],"Plant response rating (scale of 0 to 100), Nutsedge, Yellow",[1]; 16 g ai/ha,0
same,"Plant response rating (scale of 0 to 100), Nutsedge, Yellow",[1]; 31 g ai/ha,0
same,"Nutsedge, Yellow plant response rating",[1]; 62 g ai/ha,0
same,"Nutsedge, Yellow plant response rating",[1]; 125 g ai/ha,0
same,"Plant response rating, Nutsedge, Yellow",[1]; [13],0
same,"Plant response rating, Nutsedge, Yellow",[1]; [14],0
same,"Plant response rating, Nutsedge, Yellow",[1]; [15],0
same,"Plant response rating, Nutsedge, Yellow","[1]; 125 g ai/ha, scale 0 to 100",0
same,"Plant response rating (scale of 0 to 100), Kochia",[2]; 16 g ai/ha,80
same,"Plant response rating (scale of 0 to 100), Kochia",[2]; 31 g ai/ha,90
same,Kochia plant response rating,[2]; 62 g ai/ha,90
same,Kochia plant response rating,[2]; 125 g ai/ha,90
same,"Plant response rating, Kochia",[2]; [13],35
same,"Plant response rating, Kochia",[2]; [15],85
same,"Plant response rating, Kochia","[2]; 125 g ai/ha, scale 0 to 100",90
same,"Plant response rating (scale of 0 to 100), Velvetleaf",[3]; 16 g ai/ha,30
same,"Plant response rating (scale of 0 to 100), Velvetleaf",[3]; 31 g ai/ha,40
same,Velvetleaf plant response rating,[3]; 62 g ai/ha,50
same,Velvetleaf plant response rating,[3]; 125 g ai/ha,60
same,"Plant response rating, Velvetleaf",[3]; [13],25
same,"Plant response rating, Velvetleaf",[3]; [14],35
same,"Plant response rating, Velvetleaf",[3]; [15],40
same,"Plant response rating, Velvetleaf","[3]; 125 g ai/ha, scale 0 to 100",65
same,"Plant response rating, Sunflower",[4]; [13],10
same,"Plant response rating, Sunflower",[4]; [14],25
same,"Plant response rating, Sunflower",[4]; [15],70
same,"Plant response rating, Sunflower","[4]; 125 g ai/ha, scale 0 to 100",90
same,"Plant response rating (scale of 0 to 100), Corn",[5]; 16 g ai/ha,0
same,"Plant response rating (scale of 0 to 100), Corn",[5]; 31 g ai/ha,0
same,Corn plant response rating,[5]; 62 g ai/ha,0
same,Corn plant response rating,[5]; 125 g ai/ha,35
same,"Plant response rating, Corn",[5]; [13],0
same,"Plant response rating, Corn",[5]; [14],0
same,"Plant response rating, Corn",[5]; [15],0
same,"Plant response rating, Corn","[5]; 125 g ai/ha, scale 0 to 100",0
same,"Plant response rating (scale of 0 to 100), Goosegrass",[6]; 16 g ai/ha,0
same,"Plant response rating (scale of 0 to 100), Goosegrass",[6]; 31 g ai/ha,0
same,Goosegrass plant response rating,[6]; 62 g ai/ha,0
same,Goosegrass plant response rating,[6]; 125 g ai/ha,0
same,"Plant response rating, Goosegrass",[6]; [13],0
same,"Plant response rating, Goosegrass",[6]; [14],0
same,"Plant response rating, Goosegrass",[6]; [15],0
same,"Plant response rating, Goosegrass","[6]; 125 g ai/ha, scale 0 to 100",0
same,"Plant response rating (scale of 0 to 100), Ragweed",[7]; 16 g ai/ha,35
same,"Plant response rating (scale of 0 to 100), Ragweed",[7]; 31 g ai/ha,40
same,Ragweed plant response rating,[7]; 62 g ai/ha,70
same,Ragweed plant response rating,[7]; 125 g ai/ha,80
same,"Plant response rating, Ragweed",[7]; [13],55
same,"Plant response rating, Ragweed",[7]; [14],55
same,"Plant response rating, Ragweed",[7]; [15],70
same,"Plant response rating, Ragweed","[7]; 125 g ai/ha, scale 0 to 100",80
same,"Plant response rating (scale of 0 to 100), Cocklebur",[8]; 16 g ai/ha,25
same,"Plant response rating (scale of 0 to 100), Cocklebur",[8]; 31 g ai/ha,25
same,Cocklebur plant response rating,[8]; 62 g ai/ha,50
same,Cocklebur plant response rating,[8]; 125 g ai/ha,90
same,"Plant response rating, Cocklebur",[8]; [13],15
same,"Plant response rating, Cocklebur",[8]; [14],30
same,"Plant response rating, Cocklebur",[8]; [15],65
same,"Plant response rating, Cocklebur","[8]; 125 g ai/ha, scale 0 to 100",80
same,"Plant response rating (scale of 0 to 100), Lambsquarters",[9]; 16 g ai/ha,70
same,"Plant response rating (scale of 0 to 100), Lambsquarters",[9]; 31 g ai/ha,90
same,Lambsquarters plant response rating,[9]; 62 g ai/ha,90
same,Lambsquarters plant response rating,[9]; 125 g ai/ha,95
same,"Plant response rating, Lambsquarters",[9]; [13],75
same,"Plant response rating, Lambsquarters",[9]; [14],100
same,"Plant response rating, Lambsquarters",[9]; [15],100
same,"Plant response rating, Lambsquarters","[9]; 125 g ai/ha, scale 0 to 100",100
same,"Plant response rating (scale of 0 to 100), Pigweed",[10]; 16 g ai/ha,50
same,"Plant response rating (scale of 0 to 100), Pigweed",[10]; 31 g ai/ha,50
same,Pigweed plant response rating,[10]; 62 g ai/ha,65
same,Pigweed plant response rating,[10]; 125 g ai/ha,65
same,"Plant response rating, Pigweed",[10]; [13],35
same,"Plant response rating, Pigweed",[10]; [14],45
same,"Plant response rating, Pigweed",[10]; [15],70
same,"Plant response rating, Pigweed","[10]; 125 g ai/ha, scale 0 to 100",95
same,"Plant response rating (scale of 0 to 100), Surinam Grass","[11]; Postemergence, 16 g ai/ha",0
same,"Plant response rating (scale of 0 to 100), Surinam Grass","[11]; Postemergence, 31 g ai/ha",25
same,Surinam Grass plant response rating,"[11]; Postemergence, 62 g ai/ha, scale 0 to 100 (0 no effect, 100 complete control)",45
same,"Plant response rating, Surinam Grass",[11]; [13],0
same,"Plant response rating, Surinam Grass",[11]; [15],0
same,"Plant response rating, Surinam Grass","[11]; 125 g ai/ha, scale 0 to 100",10
same,"Plant response rating (scale of 0 to 100), Crabgrass",[12]; 16 g ai/ha,20
same,"Plant response rating (scale of 0 to 100), Crabgrass",[12]; 31 g ai/ha,40
same,Crabgrass plant response rating,[12]; 62 g ai/ha,70
same,Crabgrass plant response rating,[12]; 125 g ai/ha,70
same,"Plant response rating, Crabgrass",[12]; [13],0
same,"Plant response rating, Crabgrass",[12]; [14],0
same,"Plant response rating, Crabgrass",[12]; [15],0
same,"Plant response rating, Crabgrass","[12]; 125 g ai/ha, scale 0 to 100",0
